# In patent US20240166626A1, “Compounds and Methods for Preventing, Treating, or Ameliorating Airway Disease” (THOMAS JEFFERSON UNIVERSITY, priority 2021, published 2024):
# Target: CXCR4 (Homo sapiens, UniProt P61073)
# Experiment: BRET analysis of β-arrestin2 interaction with CXCR4 in HEK 293 cells
# Assay type: cell-based
# Details: 10 μM DFPQ, FIG. 2C
# Method: FIGS. 2A-2C: […] Cells were read every 2 min post agonist addition. […]® ADRB2 cells (DiscoveRx) were maintained with the AssayCompleteTM Cell Culture kit (DiscoveRx catalog #92-[…]). […] HEK 293 cells stably overexpressing β2AR included 250 μg/ml G418. Cells were incubated at 37° C. in a humidified incubator with 5% CO2. […] Cells were read every three minutes for 18 minutes on a PolarStar Optima plate reader (BMG) to establish peak signal. […] Plates were incubated in the dark at room temperature for one hour. Luminescence was determined at room temperature (23-25° C.) on a PolarStar Optima plate reader (BMG). […] Screening data analysis and IC50 determination. […] Relative assay bias was calculated from the ratio of normalized cAMP and arrestin recruitment responses. […] BRET was measured using a Tecan Infinite F500 microplate reader. […] Bound [35 S]GTPγS was collected by rapid filtration on GF/B filters, washed 4 times with 4 ml of cold GTPγS wash buffer and analyzed by liquid scintillation counting. […] Immunoprecipitated proteins were separated by SDS-PAGE and analyzed by western blot using a β2AR C-terminal tail or phospho-specific antibody. […] Band intensity was measured by densitometry using ImageJ. […] Absorbance was then measured on a plate reader at 405 nm. […] Lungs were monitored for appropriate inflation. […] Images were analyzed post hoc using the ImageJ software. […] Cell-free area was quantitated using ImageJ. […]
# Sequence of CXCR4 (P61073 whole entry, species assumed): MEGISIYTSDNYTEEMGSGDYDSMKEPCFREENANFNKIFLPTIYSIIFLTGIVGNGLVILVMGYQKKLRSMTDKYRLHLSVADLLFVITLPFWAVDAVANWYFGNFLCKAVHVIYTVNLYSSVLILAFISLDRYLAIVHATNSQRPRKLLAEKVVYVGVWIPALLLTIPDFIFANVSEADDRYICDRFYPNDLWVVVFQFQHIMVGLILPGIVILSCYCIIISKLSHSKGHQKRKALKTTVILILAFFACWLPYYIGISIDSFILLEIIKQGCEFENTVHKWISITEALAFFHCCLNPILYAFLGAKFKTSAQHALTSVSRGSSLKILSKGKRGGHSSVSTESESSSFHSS
smiles,measurement,value
"Fc1ccc(Nc2nc(NC3CCCCC3)c3ccccc3n2)cc1F [DFPQ, N^4-cyclohexyl-N^2-(3,4-difluorophenyl)quinazoline-2,4-diamine]",β-arrestin2 interaction with CXCR4,no effect
